Assay type in all cases: in vivo, human
For assay [1], the system named is sensory panel. Put plainly: Sensory panel, coffee composition (Emmi Noir coffee, containing milk). As to conditions: 200 ppm in coffee containing milk; panel score. How it is done:
Next, glucose-6-O-octanoate was added to a coffee composition (Emmi Noir coffee, containing milk), to result in a final concentration of 200 ppm in the test composition. In parallel, a control composition, comprising Emmi Noir coffee, containing milk was also generated. A sensory panel consisting of between 6 to 8 persons compared the overall flavor, sweetness, acidity, bitterness, astringency, off-notes, and long-lastingness of the sweetness of the test composition and the control composition. The results were analyzed using the Duncan comparison test.

Assay [2] deals with sensory panel. Description: Sensory panel, strawberry flavored bottled water (BWAT) containing 7% w/v sucrose. As to conditions: 100 ppm in strawberry BWAT 7% sucrose; panel score. Here is the method: Next, glucose-6-O-octanoate was added to a fruit flavored bottled water test composition (strawberry flavored water, containing 7% w/v sucrose), to result in a final concentration of 100 ppm in the test composition.

Assay [3] relates to sensory panel. Description: Sensory panel, pomegranate juice. As to conditions: 100 ppm in pomegranate juice; panel score. Here is the method:
Next, glucose-6-O-octanoate was added to a pomegranate juice composition, to result in a final concentration of 100 ppm in the test composition. In parallel, a control composition, comprising pomegranate juice was also generated. A sensory panel consisting of between 6 to 8 persons compared the overall flavor, sweetness, acidity, bitterness, astringency, off-notes, and long-lastingness of the sweetness of the test composition and the control composition. The results were analyzed using the Duncan comparison test.

For assay [4], the system named is sensory panel. Description: Sensory panel, energy drink. Set-up: scale not given here. To be noted: panel score. How it is done:
[…] In parallel, a control energy drink composition was also generated. A sensory panel consisting of between 6 to 8 persons compared the overall flavor, sweetness, acidity, bitterness, astringency, off-notes, and long-lastingness of the sweetness of the test composition and the control composition. The results were analyzed using the Duncan comparison test.

Regarding `CCCCCCCC(=O)OC[C@@H](O)[C@@H](O)[C@H](O)[C@@H](O)C=O` [glucose-6-O-octanoate], in the assay with sensory panel [1], the Acidity is reported as 0.17, the Bitterness was determined as 1.92, the “Long-lasting (sweet)” value was 1.83 and the Off-notes is given as 0.33. Further, the Overall Flavor in the assay on sensory panel [1] was 3.17. For the same compound, in the assay with sensory panel [2], the Astringency is 0.5, the Long-Lasting came to 0.92, the Off-notes is 0.33 and the “Overall Flavor” value is recorded as 3. The same compound returned a Sweetness in the assay with sensory panel [2] of 4.08. In the assay with sensory panel [3], the Long-Lasting is on record as 1.75, the Off-notes was 0.62 and the “Overall Flavor” value worked out at 3.38. In the assay with sensory panel [4] (100 ppm in energy drink), the Acidity stood at 2.17, the Astringency is on record as 0.67, the Bitterness is reported as 0.83 and the Long-Lasting worked out at 2. Also, the “Overall Flavor” value with sensory panel [4] (100 ppm in energy drink) was 3.33. In the assay on sensory panel [4] (200 ppm in energy drink), the Acidity turned out to be 2.5, the Astringency came out at 0.29, the Bitterness was 0.93 and the Off-notes turned out to be 0.21. Besides, the “Overall Flavor” value in the assay with sensory panel [4] (200 ppm in energy drink) is on record as 3.5.

The values are drawn from US20210161189A1, “MONOESTER SUGAR DERIVATIVES AS FLAVOR MODIFIERS” (Firmenich SA, priority 2018, published 2021).
